Test results reported in ChEMBL document CHEMBL3885861, “Open TG-GATES”.

Species: Rattus norvegicus
Assay: Open TG-GATES - Regimen: Single
Format: toxicity, organism-based, Sprague-Dawley
Design: regimen Single, gender Male, age 6 weeks
Conditions: in vivo, po, route gavage; for APTT / Bas / Eos / Fbg / Hb / Ht / Lym / MCH / MCHC / MCV / Mono / Neu / PT / Plat / RBC / Ret / WBC: tissue Blood; for KIDNEY_L / KIDNEY_R / KIDNEY_TOTAL: tissue Kidney; for LIVER: tissue Liver; for A/G / ALP / ALT / AST / BUN / CRE / Ca / Cl / DBIL / GLC / IP / K / LDH / Na / PL / RALB / TBIL / TC / TG / TP / gamma-GTP: tissue Plasma
[1] = 0 mg/kg, 3 h, dose level Control
[2] = 0 mg/kg, 6 h, dose level Control
[3] = 0 mg/kg, 9 h, dose level Control
[4] = 0 mg/kg, 24 h, dose level Control
[5] = 100 mg/kg, 24 h, dose level Low

## C[C@H]1O[C@H](O[C@H]2[C@H](O)[C@@H](O)[C@@H](O[C@H]3[C@H](O)[C@@H](O)C(O)O[C@@H]3CO)O[C@@H]2CO)[C@H](O)[C@@H](O)[C@@H]1N[C@H]1C=C(CO)[C@@H](O)[C@H](O)[C@H]1O (some centres undefined) [ACARBOSE]
[1]
  TERMINAL_BW: 196.9 g
  APTT: 16.9 s
  Bas: 0.2%
  Eos: 0.8%
  Fbg: 275 mg/dL
  Hb: 13.4 g/dL
  Ht: 41.3%
  Lym: 78.6%
  MCH: 20.8 pg
  MCHC: 32.6%
  MCV: 63.7 fL
  Mono: 2.6%
  Neu: 16.8%
  PT: 13.6 s
  Plat: 116.5 x10_4/uL
  RBC: 647.8 x10_4/ul
  Ret: 8.1%
  WBC: 97.1 x10_2/uL
  KIDNEY_L: 0.9 g
  KIDNEY_R: 0.9 g
  KIDNEY_TOTAL: 1.8 g
  LIVER: 8.8 g
  A/G: 0.9
  ALP: 1499.8 IU/L
  ALT: 36 IU/L
  AST: 72.6 IU/L
  BUN: 10.4 mg/dL
  CRE: 0.2 mg/dL
  Ca: 10.7 mg/dL
  Cl: 105.2 meq/L
  DBIL: 0.006 mg/dL
  GLC: 174.6 mg/dL
  IP: 9.5 mg/dL
  K: 4 meq/L
  LDH: 58.2 IU/L
  Na: 141.4 meq/L
  PL: 133 mg/dL
  RALB: 2.5 g/dL
  TBIL: 0.06 mg/dL
  TC: 73.6 mg/dL
  TG: 46.8 mg/dL
  TP: 5.2 g/dL
  gamma-GTP: 1 IU/L
[2]
  TERMINAL_BW: 197.1 g
  APTT: 17.2 s
  Bas: 0.2%
  Eos: 0.6%
  Fbg: 286 mg/dL
  Hb: 13.2 g/dL
  Ht: 40.8%
  Lym: 73.6%
  MCH: 21 pg
  MCHC: 32.3%
  MCV: 64.9 fL
  Mono: 2.6%
  Neu: 22.4%
  PT: 13.7 s
  Plat: 125.4 x10_4/uL
  RBC: 629.8 x10_4/ul
  Ret: 8.4%
  WBC: 74.2 x10_2/uL
  KIDNEY_L: 0.9 g
  KIDNEY_R: 0.9 g
  KIDNEY_TOTAL: 1.9 g
  LIVER: 8.2 g
  A/G: 0.9
  ALP: 1467.2 IU/L
  ALT: 35.2 IU/L
  AST: 72.2 IU/L
  BUN: 8.8 mg/dL
  CRE: 0.2 mg/dL
  Ca: 10.5 mg/dL
  Cl: 104.6 meq/L
  DBIL: 0.004 mg/dL
  GLC: 166 mg/dL
  IP: 10.4 mg/dL
  K: 3.7 meq/L
  LDH: 65 IU/L
  Na: 141.6 meq/L
  PL: 136.8 mg/dL
  RALB: 2.5 g/dL
  TBIL: 0.064 mg/dL
  TC: 73.4 mg/dL
  TG: 72.4 mg/dL
  TP: 5.2 g/dL
  gamma-GTP: 1.4 IU/L
[3]
  TERMINAL_BW: 198.4 g
  APTT: 18.3 s
  Bas: 0%
  Eos: 0.8%
  Fbg: 306.6 mg/dL
  Hb: 13.2 g/dL
  Ht: 40.7%
  Lym: 75.2%
  MCH: 20.9 pg
  MCHC: 32.3%
  MCV: 64.8 fL
  Mono: 1.8%
  Neu: 21%
  PT: 13.6 s
  Plat: 122.9 x10_4/uL
  RBC: 629.4 x10_4/ul
  Ret: 8.4%
  WBC: 90.2 x10_2/uL
  KIDNEY_L: 0.9 g
  KIDNEY_R: 0.9 g
  KIDNEY_TOTAL: 1.8 g
  LIVER: 8.1 g
  A/G: 0.9
  ALP: 1467.6 IU/L
  ALT: 35.2 IU/L
  AST: 69.4 IU/L
  BUN: 8.6 mg/dL
  CRE: 0.2 mg/dL
  Ca: 10.4 mg/dL
  Cl: 104.2 meq/L
  DBIL: 0.006 mg/dL
  GLC: 177.8 mg/dL
  IP: 10.2 mg/dL
  K: 3.9 meq/L
  LDH: 63.8 IU/L
  Na: 140.8 meq/L
  PL: 133.6 mg/dL
  RALB: 2.5 g/dL
  TBIL: 0.06 mg/dL
  TC: 73.6 mg/dL
  TG: 52.4 mg/dL
  TP: 5.2 g/dL
  gamma-GTP: 1.2 IU/L
[4]
  TERMINAL_BW: 211.4 g
  APTT: 19.4 s
  Bas: 0%
  Eos: 1%
  Fbg: 269.6 mg/dL
  Hb: 13.2 g/dL
  Ht: 40.1%
  Lym: 73.6%
  MCH: 20.7 pg
  MCHC: 32.8%
  MCV: 63 fL
  Mono: 3.2%
  Neu: 21.4%
  PT: 13.1 s
  Plat: 113.4 x10_4/uL
  RBC: 636.6 x10_4/ul
  Ret: 7.9%
  WBC: 81.7 x10_2/uL
  KIDNEY_L: 1 g
  KIDNEY_R: 0.9 g
  KIDNEY_TOTAL: 1.9 g
  LIVER: 9.8 g
  A/G: 0.9
  ALP: 1381.8 IU/L
  ALT: 42.2 IU/L
  AST: 71.6 IU/L
  BUN: 14.2 mg/dL
  CRE: 0.2 mg/dL
  Ca: 10.7 mg/dL
  Cl: 103.8 meq/L
  DBIL: 0.006 mg/dL
  GLC: 175.8 mg/dL
  IP: 8.3 mg/dL
  K: 3.9 meq/L
  LDH: 60.8 IU/L
  Na: 141.4 meq/L
  PL: 139.8 mg/dL
  RALB: 2.5 g/dL
  TBIL: 0.062 mg/dL
  TC: 78 mg/dL
  TG: 59.2 mg/dL
  TP: 5.3 g/dL
  gamma-GTP: 1 IU/L
100 mg/kg, 3 h, dose level Low
  TERMINAL_BW: 197.7 g
  APTT: 16.7 s
  Bas: 0.2%
  Eos: 0.8%
  Fbg: 274.6 mg/dL
  Hb: 13.5 g/dL
  Ht: 41.3%
  Lym: 78.4%
  MCH: 21.1 pg
  MCHC: 32.6%
  MCV: 64.8 fL
  Mono: 2%
  Neu: 17.8%
  PT: 13.6 s
  Plat: 118.3 x10_4/uL
  RBC: 639 x10_4/ul
  Ret: 8.2%
  WBC: 89.6 x10_2/uL
  KIDNEY_L: 0.9 g
  KIDNEY_R: 0.9 g
  KIDNEY_TOTAL: 1.8 g
  LIVER: 8.5 g
  A/G: 0.9
  ALP: 1409.6 IU/L
  ALT: 39.2 IU/L
  AST: 77.6 IU/L
  BUN: 10.4 mg/dL
  CRE: 0.2 mg/dL
  Ca: 10.7 mg/dL
  Cl: 104.6 meq/L
  DBIL: 0.004 mg/dL
  GLC: 172.2 mg/dL
  IP: 9.9 mg/dL
  K: 3.8 meq/L
  LDH: 60 IU/L
  Na: 141.2 meq/L
  PL: 136.4 mg/dL
  RALB: 2.5 g/dL
  TBIL: 0.062 mg/dL
  TC: 75.4 mg/dL
  TG: 39.2 mg/dL
  TP: 5.1 g/dL
  gamma-GTP: 1 IU/L
100 mg/kg, 6 h, dose level Low
  TERMINAL_BW: 198.1 g
  APTT: 16 s
  Bas: 0%
  Eos: 1%
  Fbg: 307.2 mg/dL
  Hb: 13.4 g/dL
  Ht: 41.5%
  Lym: 78.2%
  MCH: 21 pg
  MCHC: 32.3%
  MCV: 65.1 fL
  Mono: 2.2%
  Neu: 17.8%
  PT: 13.3 s
  Plat: 117.7 x10_4/uL
  RBC: 636.8 x10_4/ul
  Ret: 8.8%
  WBC: 81.3 x10_2/uL
  KIDNEY_L: 0.9 g
  KIDNEY_R: 0.9 g
  KIDNEY_TOTAL: 1.9 g
  LIVER: 8.3 g
  A/G: 0.9
  ALP: 1322 IU/L
  ALT: 34.6 IU/L
  AST: 67.8 IU/L
  BUN: 8.4 mg/dL
  CRE: 0.2 mg/dL
  Ca: 10.8 mg/dL
  Cl: 104.2 meq/L
  DBIL: 0.002 mg/dL
  GLC: 168.2 mg/dL
  IP: 10.2 mg/dL
  K: 3.8 meq/L
  LDH: 58.4 IU/L
  Na: 141 meq/L
  PL: 133.8 mg/dL
  RALB: 2.5 g/dL
  TBIL: 0.062 mg/dL
  TC: 77.2 mg/dL
  TG: 31 mg/dL
  TP: 5.2 g/dL
  gamma-GTP: 1 IU/L
100 mg/kg, 9 h, dose level Low
  TERMINAL_BW: 195.5 g
  APTT: 16.9 s
  Bas: 0%
  Eos: 0.8%
  Fbg: 303.8 mg/dL
  Hb: 13 g/dL
  Ht: 40.5%
  Lym: 77.4%
  MCH: 20.6 pg
  MCHC: 32.2%
  MCV: 63.9 fL
  Mono: 2.6%
  Neu: 18.4%
  PT: 13.4 s
  Plat: 124.4 x10_4/uL
  RBC: 634.4 x10_4/ul
  Ret: 8.3%
  WBC: 71.6 x10_2/uL
  KIDNEY_L: 0.9 g
  KIDNEY_R: 0.9 g
  KIDNEY_TOTAL: 1.8 g
  LIVER: 7.9 g
  A/G: 0.9
  ALP: 1274 IU/L
  ALT: 35.8 IU/L
  AST: 68.4 IU/L
  BUN: 8 mg/dL
  CRE: 0.2 mg/dL
  Ca: 10.6 mg/dL
  Cl: 105 meq/L
  DBIL: 0 mg/dL
  GLC: 178.2 mg/dL
  IP: 10 mg/dL
  K: 3.9 meq/L
  LDH: 64.2 IU/L
  Na: 141.6 meq/L
  PL: 150.4 mg/dL
  RALB: 2.5 g/dL
  TBIL: 0.058 mg/dL
  TC: 85.4 mg/dL
  TG: 61.6 mg/dL
  TP: 5.3 g/dL
  gamma-GTP: 1 IU/L
[5]
  TERMINAL_BW: 213.3 g
  APTT: 17.6 s
  Bas: 0%
  Eos: 1%
  Fbg: 286.2 mg/dL
  Hb: 13.4 g/dL
  Ht: 41%
  Lym: 76.4%
  MCH: 20.9 pg
  MCHC: 32.7%
  MCV: 63.9 fL
  Mono: 2.6%
  Neu: 19.2%
  PT: 13 s
  Plat: 114.1 x10_4/uL
  RBC: 641.4 x10_4/ul
  Ret: 7.9%
  WBC: 97.3 x10_2/uL
  KIDNEY_L: 0.9 g
  KIDNEY_R: 0.9 g
  KIDNEY_TOTAL: 1.9 g
  LIVER: 10.2 g
  A/G: 0.9
  ALP: 1382.4 IU/L
  ALT: 44.6 IU/L
  AST: 74 IU/L
  BUN: 14.4 mg/dL
  CRE: 0.2 mg/dL
  Ca: 10.9 mg/dL
  Cl: 105.4 meq/L
  DBIL: 0.008 mg/dL
  GLC: 170.8 mg/dL
  IP: 8.3 mg/dL
  K: 4.1 meq/L
  LDH: 57.8 IU/L
  Na: 142.6 meq/L
  PL: 140.8 mg/dL
  RALB: 2.6 g/dL
  TBIL: 0.056 mg/dL
  TC: 72.6 mg/dL
  TG: 76.2 mg/dL
  TP: 5.5 g/dL
  gamma-GTP: 1 IU/L
